The results in this text go back to patent US7563781B2, “Triazolopyrimidine derivatives” (Janssen Pharmaceutica NV, priority 2006, dated 2009).

The structures appear in SMILES notation.

The target in experiment [1] is T1, CAK complex (human Cdk7, human Cyclin H, MAT-1) (Homo sapiens, UniProt P50613).
T1 construct: made in house; host or cells: SF-900 insect cells co-infected with Flag-Cdk7 and Bab-Cyclin H baculoviruses
Briefly: in vitro time-resolved-fluorescence assay for the CAK kinase activity. Format: biochemical. Particulars: compound 20 uM; read-out: CAK % inhib; 20 uM. Summed up:
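Kinase activity of the human CAK complex (Flag-tagged Cdk7, Cyclin H, MAT-1), purified from co-infected SF-900 insect cells by Flag-M2 immunoaffinity, was measured by time-resolved fluorescence. In black glutathione-coated 96-well plates, 500 ng GST-CTD substrate with 22 uM ATP was mixed with compound in 30% DMSO/25 mM Hepes and 250 ng CAK. Plates were incubated 20 minutes at 30° C, then stopped with EDTA, bound overnight and washed. A Europium-labeled antibody detected serine-phosphorylated CTD.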

The target of experiment [2] is T2, Focal Adhesion Kinase (full-length Flag-tagged human FAK) (Homo sapiens, UniProt Q05397).
T2 construct: a purified recombinant full-length Flag-tagged human FAK protein; Flag; made in house; host or cells: baculovirus infected insect cells
T2 sequence (Q05397 whole entry): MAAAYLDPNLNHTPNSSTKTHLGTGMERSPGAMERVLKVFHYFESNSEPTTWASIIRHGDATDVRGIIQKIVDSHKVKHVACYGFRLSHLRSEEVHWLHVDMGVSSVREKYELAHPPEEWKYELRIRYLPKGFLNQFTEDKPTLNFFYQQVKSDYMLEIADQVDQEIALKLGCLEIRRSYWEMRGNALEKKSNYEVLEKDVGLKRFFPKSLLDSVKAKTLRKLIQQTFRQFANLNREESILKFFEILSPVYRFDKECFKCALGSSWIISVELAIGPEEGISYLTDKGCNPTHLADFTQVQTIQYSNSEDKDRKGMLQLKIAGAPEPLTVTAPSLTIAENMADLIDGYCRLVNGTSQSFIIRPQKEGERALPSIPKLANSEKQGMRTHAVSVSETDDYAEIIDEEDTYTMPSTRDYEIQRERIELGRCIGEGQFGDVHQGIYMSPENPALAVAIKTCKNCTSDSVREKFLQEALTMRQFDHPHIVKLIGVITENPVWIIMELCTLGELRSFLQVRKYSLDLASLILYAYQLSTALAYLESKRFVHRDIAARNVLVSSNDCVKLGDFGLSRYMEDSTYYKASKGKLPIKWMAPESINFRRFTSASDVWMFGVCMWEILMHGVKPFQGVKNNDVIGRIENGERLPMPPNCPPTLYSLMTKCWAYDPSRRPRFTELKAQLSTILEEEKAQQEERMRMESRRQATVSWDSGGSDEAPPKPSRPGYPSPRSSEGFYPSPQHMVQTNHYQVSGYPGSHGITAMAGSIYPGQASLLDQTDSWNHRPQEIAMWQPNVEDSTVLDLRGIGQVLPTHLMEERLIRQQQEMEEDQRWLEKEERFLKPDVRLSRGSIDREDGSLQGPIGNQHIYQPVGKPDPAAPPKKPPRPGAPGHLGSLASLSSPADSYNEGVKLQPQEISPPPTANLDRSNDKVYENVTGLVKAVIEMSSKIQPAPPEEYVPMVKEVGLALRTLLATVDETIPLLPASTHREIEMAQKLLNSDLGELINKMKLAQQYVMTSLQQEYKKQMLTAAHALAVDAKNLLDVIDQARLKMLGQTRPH
Briefly: in vitro FAK ELISA kinase assay. Format: biochemical. The note with it: compound 10 uM; ATP 2 uM; read-out: FAK % Inhib ave: 10 uM. Summed up:
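Plate-coated GST fusion of the 73-residue region around Tyr397 phosphorylated by full-length Flag-tagged human FAK from baculovirus-infected insect cells, with 2 μM ATP in Mg/Mn HEPES pH 7.5, 1 h at 30 °C. Phosphotyrosine detected by HRP-anti-pTyr ELISA with TMB read-out. Compounds screened at 10 μM or titrated from 50 μM in half-log steps for IC50, BSA-substrate background subtracted.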

T1 sequence (P50613 with tags, fused parts or gaps): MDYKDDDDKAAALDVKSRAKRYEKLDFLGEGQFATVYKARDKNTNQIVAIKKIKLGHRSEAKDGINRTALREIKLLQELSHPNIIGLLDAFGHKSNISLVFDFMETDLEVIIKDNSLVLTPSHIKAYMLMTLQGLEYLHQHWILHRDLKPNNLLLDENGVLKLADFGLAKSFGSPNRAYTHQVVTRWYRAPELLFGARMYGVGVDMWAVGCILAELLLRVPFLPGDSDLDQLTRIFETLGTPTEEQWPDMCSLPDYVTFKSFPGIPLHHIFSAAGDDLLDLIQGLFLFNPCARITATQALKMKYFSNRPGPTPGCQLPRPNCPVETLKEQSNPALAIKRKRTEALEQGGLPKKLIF
T1 sequence (as listed by the source partner): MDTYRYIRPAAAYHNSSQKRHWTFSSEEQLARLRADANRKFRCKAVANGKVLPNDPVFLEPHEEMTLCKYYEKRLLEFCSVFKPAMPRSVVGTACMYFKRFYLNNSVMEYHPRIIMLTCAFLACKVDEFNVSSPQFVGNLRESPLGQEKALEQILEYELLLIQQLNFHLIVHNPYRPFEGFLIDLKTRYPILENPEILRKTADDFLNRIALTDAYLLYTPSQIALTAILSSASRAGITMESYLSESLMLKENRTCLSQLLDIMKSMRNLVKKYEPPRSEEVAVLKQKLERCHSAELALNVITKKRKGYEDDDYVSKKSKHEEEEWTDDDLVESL

With `O=C(NCCCN1CCCC1)c1ccc(Nc2ncc3nnn(-c4ccc5c(c4)CCC5)c3n2)cc1` [Compound 75, 4-(3-Indan-5-yl-3H-[1,2,3]triazolo[4,5-d]pyrimidin-5-ylamino)-N-(3-pyrrolidin-1-yl-propyl)-benzamide], in experiment [1], the inhibition at 20 µM is 84%. Besides, the inhibition at 10 µM in experiment [2] was determined as 77.9%.
`O=C(NCCN1CCOCC1)c1ccc(Nc2ncc3nnn(-c4ccc5c(c4)CCC5)c3n2)cc1` [Compound 76, 4-(3-Indan-5-yl-3H-[1,2,3]triazolo[4,5-d]pyrimidin-5-ylamino)-N-(2-morpholin-4-yl-ethyl)-benzamide]: the inhibition at 20 µM in experiment [1] worked out at 10.2%. In experiment [2], the inhibition at 10 µM stood at 34.7%.
In the same order, the values of `O=C(NCCCN1CCCC1=O)c1ccc(Nc2ncc3nnn(-c4ccc5c(c4)CCC5)c3n2)cc1` [Compound 77, 4-(3-Indan-5-yl-3H-[1,2,3]triazolo[4,5-d]pyrimidin-5-ylamino)-N-[3-(2-oxo-pyrrolidin-1-yl)-propyl]-benzamide] are 72.1% and 54.2%.
On the same counts, the results for `CN1CCN(CCCNC(=O)c2ccc(Nc3ncc4nnn(-c5ccc6c(c5)CCC6)c4n3)cc2)CC1` [Compound 78, 4-(3-Indan-5-yl-3H-[1,2,3]triazolo[4,5-d]pyrimidin-5-ylamino)-N-[3-(4-methyl-piperazin-1-yl)-propyl]-benzamide] are 89% and 72%.
On the same counts, the results for `O=C(NCCCn1ccnc1)c1cccc(Nc2ncc3nnn(-c4ccc5c(c4)CCC5)c3n2)c1` [Compound 79, N-(3-Imidazol-1-yl-propyl)-3-(3-indan-5-yl-3H-[1,2,3]triazolo[4,5-d]pyrimidin-5-ylamino)-benzamide] are 86.6% and 80%.
As to `O=C(NCCCN1CCCC1=O)c1cccc(Nc2ncc3nnn(-c4ccc5c(c4)CCC5)c3n2)c1` [Compound 80, 3-(3-Indan-5-yl-3H-[1,2,3]triazolo[4,5-d]pyrimidin-5-ylamino)-N-[3-(2-oxo-pyrrolidin-1-yl)-propyl]-benzamide], the inhibition at 20 µM in experiment [1] was determined as 17.9%. For the same compound, in experiment [2], the inhibition at 10 µM was 33.9%.
In the same order, the values of `CN1CCN(CCCNC(=O)c2cccc(Nc3ncc4nnn(-c5ccc6c(c5)CCC6)c4n3)c2)CC1` [Compound 81, 3-(3-Indan-5-yl-3H-[1,2,3]triazolo[4,5-d]pyrimidin-5-ylamino)-N-[3-(4-methyl-piperazin-1-yl)-propyl]-benzamide] are 99.7% and 58.1%.
In the same order, the values of `OCCCOc1ccc(Nc2ncc3nnn(-c4ccc5c(c4)CCC5)c3n2)cc1` [Compound 82, 3-[4-(3-Indan-5-yl-3H-[1,2,3]triazolo[4,5-d]pyrimidin-5-ylamino)-phenoxy]-propan-1-ol] are 5.06% and 13.5%.
As for `CCN(CC)CCNC(=O)c1ccc(Nc2ncc3nnn(-c4ccc(C5CCCCC5)cc4)c3n2)cc1` [Compound 83, 4-[3-(4-Cyclohexyl-phenyl)-3H-[1,2,3]triazolo[4,5-d]pyrimidin-5-ylamino]-N-(2-diethylamino-ethyl)-benzamide], the inhibition at 20 µM in experiment [1] turned out to be 5.45%. In addition, the inhibition at 10 µM in experiment [2] came out at 28.7%.
Regarding `CCN(CC)CCNC(=O)c1ccc(Nc2ncc3nnn(-c4cccc(-c5cnco5)c4)c3n2)cc1` [Compound 84, N-(2-Diethylamino-ethyl)-4-[3-(3-oxazol-5-yl-phenyl)-3H-[1,2,3]triazolo[4,5-d]pyrimidin-5-ylamino]-benzamide], the inhibition at 20 µM in experiment [1] was -58.9%. For the same compound, the inhibition at 10 µM in experiment [2] was 46.6%.
Take `c1cc(Nc2ncc3nnn(-c4cccc(-c5cnco5)c4)c3n2)cc(-c2cnco2)c1` [Compound 85, (3-Oxazol-5-yl-phenyl)-[3-(3-oxazol-5-yl-phenyl)-3H-[1,2,3]triazolo[4,5-d]pyrimidin-5-yl]-amine]: the inhibition at 20 µM in experiment [1] is 9.49%. Further, the inhibition at 10 µM in experiment [2] is 47.8%.
For `CCCCNS(=O)(=O)c1ccc(OC)c(-n2nnc3cnc(Nc4ccc(C(=O)NCCN(CC)CC)cc4)nc32)c1` [Compound 86, 4-[3-(5-Butylsulfamoyl-2-methoxy-phenyl)-3H-[1,2,3]triazolo[4,5-d]pyrimidin-5-ylamino]-N-(2-diethylamino-ethyl)-benzamide], the inhibition at 20 µM in experiment [1] came out at 110%. In experiment [2], the inhibition at 10 µM is 65.1%.
With `CCN(CC)CCCOc1ccc(Nc2ncc3nnn(-c4ccc5c(c4)CCC5)c3n2)cc1` [Compound 87, [4-(3-Diethylamino-propoxy)-phenyl]-(3-indan-5-yl-3H-[1,2,3]triazolo[4,5-d]pyrimidin-5-yl)-amine], the inhibition at 20 µM in experiment [1] amounted to 99.5%. Moreover, the inhibition at 10 µM in experiment [2] was 81.5%.
In the same order, the values of `CN(CCO)CCCOc1ccc(Nc2ncc3nnn(-c4ccc5c(c4)CCC5)c3n2)cc1` [Compound 88, 2-({3-[4-(3-Indan-5-yl-3H-[1,2,3]triazolo[4,5-d]pyrimidin-5-ylamino)-phenoxy]-propyl}-methyl-amino)-ethanol] are 103% and 92.3%.
Take `CN(CCCOc1ccc(Nc2ncc3nnn(-c4ccc5c(c4)CCC5)c3n2)cc1)CC(=O)O` [Compound 89, ({3-[4-(3-Indan-5-yl-3H-[1,2,3]triazolo[4,5-d]pyrimidin-5-ylamino)-phenoxy]-propyl]-methyl-amino)-acetic acid]: the inhibition at 20 µM in experiment [1] is 97.6%. Further, the inhibition at 10 µM in experiment [2] is 73.4%.
In the same order, the values of `CN(CCCOc1ccc(Nc2ncc3nnn(-c4ccc5c(c4)CCC5)c3n2)cc1)Cc1ccccc1` [Compound 90, {4-[3-(Benzyl-methyl-amino)-propoxy]-phenyl}-(3-indan-5-yl-3H-[1,2,3]triazolo[4,5-d]pyrimidin-5-yl)-amine] are 47.5% and 31.7%.
In the case of `c1cc(OCCCN2CCOCC2)ccc1Nc1ncc2nnn(-c3ccc4c(c3)CCC4)c2n1` [Compound 91, (3-Indan-5-yl-3H-[1,2,3]triazolo[4,5-d]pyrimidin-5-yl)-[4-(3-morpholin-4-yl-propoxy)-phenyl]-amine], the inhibition at 20 µM in experiment [1] amounted to 48.7%. For the same compound, the inhibition at 10 µM in experiment [2] was found to be 10.4%.
On to `c1cc(OCCCN2CCCC2)ccc1Nc1ncc2nnn(-c3ccc4c(c3)CCC4)c2n1` [Compound 92, (3-Indan-5-yl-3H-[1,2,3]triazolo[4,5-d]pyrimidin-5-yl)-[4-(3-pyrrolidin-1-yl-propoxy)-phenyl]-amine], for which the inhibition at 20 µM in experiment [1] turned out to be 103%. Moreover, the inhibition at 10 µM in experiment [2] came out at 91.2%.
In the case of `OC1CCN(CCCOc2ccc(Nc3ncc4nnn(-c5ccc6c(c5)CCC6)c4n3)cc2)C1` (centres unmarked) [Compound 93, 1-{3-[4-(3-Indan-5-yl-3H-[1,2,3]triazolo[4,5-d]pyrimidin-5-ylamino)-phenoxy]-propyl}-pyrrolidin-3-ol], in experiment [1], the inhibition at 20 µM amounted to 101%. The inhibition at 10 µM in experiment [2] was 90.8%.
